Measured values published in patent publication US11779630B2, “Peptides and methods of using the same” (SERPIN PHARMA, LLC, priority 2020, dated 2023).

How the values were obtained:
NFκB = NFκB reporter assay (THP1-XBlue-MD2-CD14 cells) stimulated with LPS, SEAP readout; conditions: peptide 50 μg/ml, LPS 5 ng/ml, overnight (FIG. 1)
mice, lethal endotoxemia = assay: Mouse model of lethal endotoxemia (LPS 15 mg/kg); type: in vivo
Experimental: FIG. 27A: The mice were treated with SP16 or vehicle and challenged with a lethal dose of LPS (15 mg/kg) and assessed for survival over 72 hours.

Substance	NFκB activity (NFκB inducible SEAP in supernatant) (NFκB)	survival between 30 and 42 hours (mice, lethal endotoxemia) [%]	survival by 72-hrs (mice, lethal endotoxemia; p<0.001 vs. vehicle) [%]
RRRVKFNKPFVFLMIEQNTKRRR (RRRVKFNKPFVFLMIEQNTKRRR; peptide derivative) [SP21]	NFkB inhibition increased as well relative to SP16		
R R R V K F N K P F V F L M R R R (RRRVKFNKPFVFLMRRR; peptide derivative) [SP22]	NFκB activity was significantly reduced		
R R R V R F N R P F L R R R (RRRVRFNRPFLRRR; peptide derivative) [SP32]	could not be restored with the Poly arginine flanks		
V K F N K P F V F L M (VKFNKPFVFLM; listed as Homo sapiens) [SP20]	did not have an inhibitory effect		
V K F N K P F V F L M I E Q N T K (VKFNKPFVFLMIEQNTK; listed as Homo sapiens) [SP16, 24]	capable of reducing NFκB activity	100	60
V R F N R P F L (VRFNRPFL; peptide derivative) [SP31]	anti-inflammatory activity of the peptide was lost		
